{"source": "patent US20200345725A1", "about": "“Methods and Compositions for Treating Cancer” (Omeros Corporation, priority 2019, published 2020)", "type_in_all_cases": "cell-based", "key": {"[1]": {"tested_on": "mouse splenocytes", "assay": "IL-2 levels in supernatants of cultured mouse splenocytes (WT or GPR174-KO) stimulated with anti-CD3 and anti-CD28, MSD platform", "details": "2 days", "description": "To make single cell suspensions from mouse splenocytes, spleens were cut into 1-2 mm^3 pieces with a razor blade and incubated at 37° C. with 10 μg/mL DNase and 1 mg/mL Collagenase D with agitation for 90 min. Spleen fragments and cells were then pressed through a nylon screen, and the resulting cell suspension was washed. In 96-well flat-bottom plates, splenocytes were cultured in quadruplicate with the following conditions for 2 days, after which supernatants were tested for cytokine levels with the MSD platform.\nAnti-CD3 (clone 2C11; 0.1 μg/mL)\nGPR174 inhibitor (compound 10, 1 μM or 0.3 μM, or DMSO vehicle control)\nGPR174 inhibitor (compound 6, 0.3 μM, or DMSO vehicle control)\nAdenosine receptor agonist (NECA, 0.1 μM)"}, "[2]": {"tested_on": "human PBMCs", "assay": "Cytokines in supernatants of anti-CD3/anti-CD28 stimulated human PBMC (Examples 6, 8, 9)", "details": "for IL-2 in culture supernatants (fold over vehicle): day 2 post-stimulation, compound 10 at 1, 3, 10 μM", "description": "The effect of compound 10 on IL-2 and IFN-γ production in human PBMCs was determined as follows. PBMCs from a single donor were adjusted to a density of 2×10^6 cells/mL, stimulated with 100 ng/mL of anti-CD3 and 100 ng/mL of anti-CD28 antibodies and treated with 1 μM, 3 μM, or 10 μM of compound 10. Supernatant from these cells was taken on day 2 post-stimulation and the levels of IL-2 and IFN-γ were determined by ELISA assay using Ready-SET-Go ELISA kits from Affimetrix Ebioscience according to the manufacturer's instructions.\nThe effect of compound 10 on IL-2 production in human PBMCs was determined as follows. […] Supernatant from these cells was taken on day 3 post-stimulation and the levels of IL-2 were determined by ELISA assay using Ready-SET-Go™ ELISA kits from Affimetrix Ebioscience and LEGENDplex™ bead-based immunoassays from BioLegend according to the manufacturer's instructions.\nThe effect of compound 10 on IL-2 production in human PBMC from each donor was determined as follows. PBMC from each donor were adjusted to a density of 2×10^6 cells/mL, stimulated with 100 ng/mL of anti-CD3 and 100 ng/mL of anti-CD28 antibodies and treated with 30 μM compound 10. Supernatant from these cells was taken on day 2 post-stimulation and the levels of IL-2 were determined by ELISA assay using LEGENDplex™ bead-based immunoassays from BioLegend (San Diego, Calif.) according to the manufacturer's instructions.\nThe effect of compound 10 on the production of a panel of additional cytokines (interleukin 5 (IL-5), interleukin 13 (IL-13), interleukin 6 (IL-6), interleukin 9 (IL-9), interleukin 10 (IL-10), interferon gamma (IFN-γ), tumor necrosis factor alpha (TNF-α), interleukin 17A (IL-17A), interleukin 17F (IL-17F), interleukin 4 (IL-4) and interleukin 22 (IL-22)) in pooled human PBMC obtained from eight donors was determined as follows. PBMC from eight donors were pooled, then adjusted to a density of 2×10^6 cells/mL, stimulated with 100 ng/mL of anti-CD3 and 100 ng/mL of anti-CD28 antibodies and treated with 30 μM compound 10. Supernatant from these cells was taken on day 2 post-stimulation and the levels of IL-5, IL-13, IL-6, IL-9, IL-10, IFN-γ, TNF-α, IL-17A, IL-17F, IL-4 and […] were determined by ELISA using LEGENDplex™ bead-based immunoassays from BioLegend (San Diego, Calif.) according to the manufacturer's instructions."}, "[3]": {"molecular_target": "GPR174 (Homo sapiens, UniProt Q9BXC1)", "sequence (Q9BXC1 whole entry)": "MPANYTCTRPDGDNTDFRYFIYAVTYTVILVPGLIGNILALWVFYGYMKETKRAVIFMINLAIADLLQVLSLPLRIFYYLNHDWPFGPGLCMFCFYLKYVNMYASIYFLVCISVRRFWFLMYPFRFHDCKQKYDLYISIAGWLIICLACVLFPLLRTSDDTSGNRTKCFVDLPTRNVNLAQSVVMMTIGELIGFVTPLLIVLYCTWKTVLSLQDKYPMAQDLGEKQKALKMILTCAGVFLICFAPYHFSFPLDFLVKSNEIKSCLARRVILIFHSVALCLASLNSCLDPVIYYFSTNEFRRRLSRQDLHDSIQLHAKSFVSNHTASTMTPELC", "assay": "CRE-Luc reporter Gs signaling assay with GPR174", "design": "host or cells: HEK293 or CHO cell lines (ATCC)", "details": "for Gs pathway in the presence of GPR174 (CRE-Luc reporter): increasing concentrations of compound; for Fold decrease in Gs signaling activity / EC50: pCRE-Luc reporter; for EC50: multiple values = separate experiments"}, "[4]": {"details": "Example 9, day 2, PBMC of eight donors, 30 μM"}}, "note": "Where “and” joins values, the source holds several entries; their conditions need not be identical. Equal entries are not always repeated.", "data": [{"molecule": "O=C(c1ccccc1)N1CCN(c2cc(N3CCCCC3)c(F)cc2[N+](=O)[O-])CC1", "note": "[compound 6]", "values": [{"measurement": "increase of IL-2 levels", "setting": "[1]; GPR174-KO splenocytes, NECA 0.1 μM, compounds 10, 6 0.3 μM, ZM-241385 0.2 μM, FIG. 70B", "value": "modest off-target activity"}, {"measurement": "IL-2 in culture supernatants (fold over vehicle)", "setting": "[2]; Example 6", "value": "increased IL-2 levels"}, {"measurement": "Gs pathway in the presence of GPR174 (CRE-Luc reporter)", "setting": "[3]", "value": "inhibited"}, {"measurement": "Fold decrease in Gs signaling activity", "setting": "[3]", "value": 3.8, "unit": "fold"}, {"measurement": "EC50", "setting": "[3]", "value": "400 nM and 300 nM"}]}, {"molecule": "CC1CCN(c2cc(N3CCN(S(=O)(=O)c4ccccc4)CC3)c([N+](=O)[O-])cc2F)CC1", "note": "[compound 10]", "values": [{"measurement": "increase of IL-2 levels", "setting": "[1]; WT splenocytes, no NECA, compound 10 1 μM, ZM-241385 0.1 μM, FIG. 68A", "value": "greater than 4 fold"}, {"measurement": "IFN-γ in culture supernatants, fold over vehicle", "setting": "[2]; Example 6, day 2, 1, 3, 10 μM", "value": "increased interferon gamma (IFN-γ) in a dose-dependent manner"}, {"measurement": "IL-2 in culture supernatants (fold over vehicle)", "setting": "[2]; Example 6", "value": "increased IL-2 levels in a dose-dependent manner"}, {"measurement": "IL-2 in culture supernatants", "setting": "[2]; Example 8, day 3, single donor, 3, 10, 30, 60 μM", "value": "increased IL-2 levels in culture supernatants in a dose-dependent manner"}, {"measurement": "IFN-γ in culture supernatants, fold over vehicle", "setting": "[2]; [4]", "value": "statistically significant fold increase"}, {"measurement": "IL-6 in culture supernatants, fold over vehicle", "setting": "[2]; [4]", "value": "statistically significant fold increase"}, {"measurement": "IL-10 in culture supernatants, fold over vehicle", "setting": "[2]; [4]", "value": "statistically significant fold increase"}, {"measurement": "IL-17A in culture supernatants, fold over vehicle", "setting": "[2]; [4]", "value": "statistically significant fold decrease"}, {"measurement": "TNF-α in culture supernatants, fold over vehicle", "setting": "[2]; [4]", "value": "statistically significant fold increase"}, {"measurement": "IL-2 in culture supernatants, fold over vehicle, average", "setting": "[2]; Example 9, day 2, eight donors, 30 μM", "value": "about 5 fold"}, {"measurement": "Gs pathway in the presence of GPR174 (CRE-Luc reporter)", "setting": "[3]", "value": "inhibited"}, {"measurement": "Fold decrease in Gs signaling activity", "setting": "[3]", "value": 5.1, "unit": "fold"}, {"measurement": "EC50", "setting": "[3]", "value": "200 nM and 500 nM"}]}]}
